The source made the active and inactive calls. No cut-off for these calls is given here.
Experiments:
Oryctolagus cuniculus [1] = experiment: Photodynamic activity in New Zealand rabbit assessed as induction of choriocapillaris occlusion in left eye pretreated with compound at 6 mg/m2, iv followed by diode laser irradiation at 650 nm by indirect ophthalmoscopy; format: functional, organism-based
[2] = Toxicity in New Zealand rabbit assessed as retinal damage in left eye pretreated with compound at 6 mg/m2, iv followed by diode laser irradiation at 650 nm measured after 24 hrs by fluorescein angiogram; format: organism-based, Oryctolagus cuniculus; settings: in vivo, 0.65 µM, dose 6 mg/m2, time 24 hrs
[3] = Induction of singlet oxygen generation assessed as singlet oxygen quantum yield using liposome formulated compound; format: functional
[4] = Photoactivity of the compound
[5] = Toxicity in New Zealand rabbit assessed as effect on hepatic profile pretreated with compound at 6 mg/m2, iv followed by diode laser irradiation at 650 nm measured after 24 hrs by fluorescein angiogram; format: organism-based, Oryctolagus cuniculus; settings: in vivo, 0.65 µM, dose 6 mg/m2, time 24 hrs
Oryctolagus cuniculus [6] = experiment: Photodynamic activity in New Zealand rabbit assessed as blood flow obstruction causing hypo-fluorescent lesion in left eye pretreated with compound at 6 mg/m2, iv followed by diode laser irradiation at 650 nm measured after 24 hrs by fluorescein angiogram; format: functional, organism-based; settings: dose 6.0 mg/m2, time 24.0 hrs
Oryctolagus cuniculus [7] = experiment: Photodynamic activity in New Zealand rabbit assessed as appearance of pallor area of one qaurter-diameter disc shaped in left eye pretreated with compound at 6 mg/m2, iv followed by diode laser irradiation at 650 nm measured after 24 hrs by retinography; format: functional, organism-based; settings: dose 6.0 mg/m2, time 24.0 hrs
Oryctolagus cuniculus [8] = experiment: Photodynamic activity in New Zealand rabbit assessed as vascular occlusion causing hypo-fluorescent lesion in left eye pretreated with compound at 6 mg/m2, iv followed by diode laser irradiation at 650 nm measured after 24 hrs by fluorescein angiogram; format: functional, organism-based; settings: dose 6.0 mg/m2, time 24.0 hrs
Oryctolagus cuniculus [9] = experiment: Photodynamic activity in New Zealand rabbit assessed as outer blood-retinal barrier breakdown causing hyper-fluorescence in left eye pretreated with compound at 6 mg/m2, iv followed by diode laser irradiation at 650 nm measured after 24 hrs by fluorescein angiogram; format: functional, organism-based; settings: dose 6.0 mg/m2, time 24.0 hrs
[10] = Induction of singlet oxygen generation in 9:1 acetonitrile/water mixture assessed as singlet oxygen quantum yield irradiated with 532 nanometer laser light; format: functional
[11] = Aggregation property of the compound in toluene at 130 degreeC under inert atmosphere; format: physicochemical
[12] = Toxicity in New Zealand rabbit assessed as effect on renal profile pretreated with compound at 6 mg/m2, iv followed by diode laser irradiation at 650 nm measured after 24 hrs by fluorescein angiogram; format: organism-based, Oryctolagus cuniculus; settings: in vivo, 0.65 µM, dose 6 mg/m2, time 24 hrs

Row | Compound | Activity (Oryctolagus cuniculus [1]) | Activity [2] | Activity [3] | Activity [4] | Activity [5] | Activity (Oryctolagus cuniculus [6]) | Activity (Oryctolagus cuniculus [7]) | Activity (Oryctolagus cuniculus [8]) | Activity (Oryctolagus cuniculus [9]) | Activity [10] | Activity [11] | Activity [12]
1 | C=Cc1c(C)c2cc3nc(cc4[nH]c(cc5nc(cc1[nH]2)[C@@]1(C)C5=CC[C@H]2C(=O)N(c5ccc([N+](=O)[O-])cc5)C(=O)[C@H]21)c(C)c4CCC(=O)OC)C(CCC(=O)OC)=C3C | Active | Non-Toxic | 0.5 | Active | Non-Toxic | Active | Active | Active | Active | 0.6 | Not Active | Non-Toxic
2 | C=CC1=C(C)c2cc3[nH]c(cc4nc(cc5[nH]c(cc1n2)c(C)c5CCC(=O)OC)C(CCC(=O)OC)=C4C)[C@@]1(C)C3=CCC2C(=O)N(c3ccc([N+](=O)[O-])cc3)C(=O)C21 (some centres undefined) | Active | Non-Toxic | 0.5 | Active | Non-Toxic | Active | Active | Active | Active | 0.6 | Not Active | Non-Toxic

Source: ChEMBL document CHEMBL4673211, “A new Chlorin formulation promotes efficient photodynamic action in choriocapillaris of rabbit's eyes” (Bioorg Med Chem Lett, 2018)
